Measured values: patent US8222008B2, “Methods and compositions for treating cancer” (The Administrators of The Tulane Educational Fund, priority 2003, dated 2012)
Marks after values point to notes of the source that are not given here.

Key:
Assay type in all cases: cell-based, human
[1] = system: cathepsin B in normal and nephropathic cystinotic fibroblasts; test: Cathepsin B localisation by immunohistochemistry; settings: after TNF-a exposure; Lysotracker red and anti-cathepsin B staining
Method: Cells were stained by Lysotracker® Red stain (Molecular Probes) for 5 minutes at room temperature, washed twice in PBS, and then fixed in 4% formalin for 1 hour. Slides were immersed in blocking buffer (PBS, pH 7.2, 0.5% Carnation® dry milk, 0.1% Triton® X-100 reagent) for 20 minutes at room temperature, washed twice in PBS, and then incubated with primary antibody (anti-cathepsin B, Santa Cruz Biotechnologies) diluted 1:100 for 2 hours at room temperature, followed by incubation with secondary antibody (FITC-conjugated rabbit anti-goat, Santa Cruz Biotechnologies), at 4° C. overnight. Slides were washed twice with PBS and then sealed with cover slips and viewed using a Leica® DMRX deconvoluting microscope.
To substantiate that lysosomes are perneabilized by TNF-a (Guicciardi M, 2000J. Clin. Invest., 106:1127-1137) under these conditions, cathepsin B (a lysosomal cysteine protease) was localized by immunohistochemistry in normal and nephropathic cystinotic cells before and after induction of apoptosis. Fibroblasts were maintained under normal culture conditions, exposed to TNF-a, loaded with Lysotracker® red reagent, fixed, and stained for cathepsin B using an anti-cathepsin B antibody. Photographs were made via a deconvoluting microscope.
Lysosomes were identified with Lysotracker red dye. […]

[2] = system: GM00008 nephropathic cystinotic fibroblasts; test: Apoptosis by apoptotic triggers, TUNEL assay; settings: TNF-a 30 ng/mL with actinomycin D 2.5 μg/mL for 16 hours
Method: (§1) Normal and cystinotic fibroblasts were purchased from the Coriell Mutant Cell Repository, and cultured in Coon modification of Ham F12 medium, supplemented with 10% fetal calf serum (FCS). Renal proximal tubule epithelial (RPTE; Biowhittaker Corp.) were cultured in renal epithelial basal medium supplemented with one Singlequots™ kit (Biowhittaker) per 500 mL to make renal epithelial growth media (REGM, Biowhittaker). Fibroblasts and RPTE were maintained in a 5% carbon dioxide, 95% air, humidified incubator at 37° C. (Thoene J. G. et al, 1976 J. Clin. Invest, 58:180-189).
(§2) Induction of apoptosis and assays for its detection were performed using commercially available reagents. Normal and cystinotic fibroblasts were matched for passage number (±3) and cell density, and then exposed to an apoptotic trigger. One apoptotic trigger used was TNF-a (30 ng/mL) with actinomycin D (2.5 μg/mL) for 16 hours. Another trigger was anti-Fas antibody (500 ng/mL) with actinomycin D (2.5 μg/mL) for 16 hours. A third trigger to induce apoptosis in the cells was Ultraviolet B light (60 mJ). See, e.g., previously described protocols of Aggarwal B B, 1992 Immunol. Ser., 56:61-78; Higuchi M. et al, 1995 J. Immunol. Meth., 178:173-181; Itoh N, et al, 1991 Cell, 66:233-243; Itoh N. et al, 1993 J. Biol. Chem., 268:10932-10937. Serum withdrawal was also used as a apoptotic stimulus (Lieberthal W, et al, 1998 Am. J. Physiol. 275:F691-F702; Verzola D. et al, 2001 Exp Nephrol., 9:366-371; Iglesias J. et al, 1999 Am. J. Physiol. 277:F711-F712; Kulkarni G V, et al, 1994 J. Cell Sci., 107:1169-1179), in which case the cells were incubated in F12 medium without serum for 24 hours and then analyzed for apoptosis.
(§3) 2. TUNEL Assay • The TUNEL assay employs terminal deoxynucleotidyl transferase (TdT) to label the ends of double stranded DNA breaks, which occur in apoptotic cells, with FITC-conjugated dUTP. Cells were fixed in 4% buffered formalin, washed, incubated in permeabilization solution (0.1% Triton X-100 in 0.1% Na Citrate) for 2 minutes on ice and then stained with 25 μL of TdT/45 μL of labeled dNTP mix for 40 minutes at 37° C. The cells were visually enumerated by fluorescence microscopy, scoring a minimum of five fields (250 to 300 cells) for fluorescence in triplicate followed by counting all cells in the same field by light microscopy, with a minimum of 750 cells scored per condition. The apoptosis rate is the total number of cells that fluoresce divided by the total cells in the field.
(§4) In another experiment, cells were treated with apoptosis inducers as indicated, stained with TUNEL reagent, and analyzed by florescence microscopy. A minimum of 250 cells were scored per conditions in triplicate. […] P>0.05 for ocular versus normal and intermediate; P=0.01 for ocular versus nephropathic.

[3] = system: GM00010 normal fibroblasts; test: Apoptosis by apoptotic triggers, TUNEL assay; settings: TNF-a 30 ng/mL with actinomycin D 2.5 μg/mL for 16 hours
Method: as §1, §2, §3, §4

[4] = system: nephropathic cystinotic fibroblasts (AVG of 3); test: Apoptosis by apoptotic triggers, TUNEL assay; settings: TNF-a 30 ng/mL with actinomycin D 2.5 μg/mL for 16 hours, AVG of 3 nephropathic lines
Method: as §1, §2, §3, §4

[5] = system: normal fibroblasts (AVG of 2); test: Apoptosis by apoptotic triggers, TUNEL assay; settings: TNF-a 30 ng/mL with actinomycin D 2.5 μg/mL for 16 hours, AVG of 2 normal lines
Method: as §1, §2, §3, §4

[6] = system: GM00379 intermediate cystinotic fibroblasts; test: Apoptosis by apoptotic triggers, TUNEL assay; settings: TNF-a 30 ng/mL with actinomycin D 2.5 μg/mL for 16 hours
Method: as §1, §2, §3, §4

[7] = system: GM08761 ocular cystinotic fibroblasts; test: Apoptosis by apoptotic triggers, TUNEL assay; settings: TNF-a 30 ng/mL with actinomycin D 2.5 μg/mL for 16 hours
Method: as §1, §2, §3, §4

[8] = system: GM00046 nephropathic cystinotic fibroblasts; test: Apoptosis by apoptotic triggers, TUNEL assay; settings: TNF-a 30 ng/mL with actinomycin D 2.5 μg/mL for 16 hours
Method: as §1, §2, §3, §4

[9] = system: GM05399 normal fibroblasts; test: Apoptosis by apoptotic triggers, TUNEL assay; settings: TNF-a 30 ng/mL with actinomycin D 2.5 μg/mL for 16 hours
Method: as §1, §2, §3, §4

[10] = system: GM00760 nephropathic cystinotic fibroblasts; test: Apoptosis by apoptotic triggers, TUNEL assay; settings: TNF-a 30 ng/mL with actinomycin D 2.5 μg/mL for 16 hours
Method: as §1, §2, §3, §4

[11] = system: GM00008 nephropathic cystinotic fibroblasts; test: Apoptosis by apoptotic triggers, CaspACE assay; settings: TNF-a 30 ng/mL with actinomycin D 2.5 μg/mL for 16 hours
Method: as §1, §2
(§5) 1. The CaspACE Assay • CaspACE (Promega) is an FITC-conjugated cell-permeable form of the pan-caspase inhibitor zVAD-Fmk, which binds to activated caspase(s). Cells were incubated in FITC-VAD-Fmk-containing medium (10 μM for 30 minutes at 37° C.), washed, and then fixed in 10% buffered formalin (30 minutes at room temperature) before analysis. The cells were visually enumerated by fluorescence microscopy, scoring a minimum of five fields (250 to 300 cells) for fluorescence in triplicate followed by counting all cells in the same field by light microscopy, with a minimum of 750 cells scored per condition. The apoptosis rate is the total number of cells that fluoresce divided by the total cells in the field.
(§6) Apoptosis was induced in three nephropathic cystinotic, two normal, one intermediate cystinotic, and one ocular cystinotic fibroblast lines by three separate inducers. In one experiment, cells were treated with apoptosis inducers as indicated above. Apoptosis in these lines was assessed by CaspACE assay and analyzed by fluorescence microscopy. A minimum of 250 cells was scored per condition, in triplicate. Thus at least 750 cells were scored precondition. T-statistics: P<0.001 for average nephropathic versus average normal. P<0.05 for ocular versus nephropathic. P>0.05 for ocular versus normal, intermediate versus nephropathic, and intermediate versus normal.

[12] = system: GM00010 normal fibroblasts; test: Apoptosis by apoptotic triggers, CaspACE assay; settings: TNF-a 30 ng/mL with actinomycin D 2.5 μg/mL for 16 hours
Method: as §1, §2, §5, §6

[13] = system: nephropathic cystinotic fibroblasts (AVG of 3); test: Apoptosis by apoptotic triggers, CaspACE assay; settings: TNF-a 30 ng/mL with actinomycin D 2.5 μg/mL for 16 hours, AVG of 3 nephropathic lines
Method: as §1, §2, §5, §6

[14] = system: normal fibroblasts (AVG of 2); test: Apoptosis by apoptotic triggers, CaspACE assay; settings: TNF-a 30 ng/mL with actinomycin D 2.5 μg/mL for 16 hours, AVG of 2 normal lines
Method: as §1, §2, §5, §6

[15] = system: GM00379 intermediate cystinotic fibroblasts; test: Apoptosis by apoptotic triggers, CaspACE assay; settings: TNF-a 30 ng/mL with actinomycin D 2.5 μg/mL for 16 hours
Method: as §1, §2, §5, §6

[16] = system: GM08761 ocular cystinotic fibroblasts; test: Apoptosis by apoptotic triggers, CaspACE assay; settings: TNF-a 30 ng/mL with actinomycin D 2.5 μg/mL for 16 hours
Method: as §1, §2, §5, §6

[17] = system: GM00046 nephropathic cystinotic fibroblasts; test: Apoptosis by apoptotic triggers, CaspACE assay; settings: TNF-a 30 ng/mL with actinomycin D 2.5 μg/mL for 16 hours
Method: as §1, §2, §5, §6

[18] = system: GM05399 normal fibroblasts; test: Apoptosis by apoptotic triggers, CaspACE assay; settings: TNF-a 30 ng/mL with actinomycin D 2.5 μg/mL for 16 hours
Method: as §1, §2, §5, §6

[19] = system: GM00760 nephropathic cystinotic fibroblasts; test: Apoptosis by apoptotic triggers, CaspACE assay; settings: TNF-a 30 ng/mL with actinomycin D 2.5 μg/mL for 16 hours
Method: as §1, §2, §5, §6

MDA-MB-231 (ER−) = test: Apoptosis in breast cancer cell lines, CaspACE assay with flow cytometry; settings: Tamoxifen 100 μM, 16 hours
From the text: (§7) The apoptotic effect of CDME was compared to that of tamoxifen using the CaspACE™ assay system (Promega) and conventional flow cytometry techniques.
(§8) All cell lines were obtained from the American Type Culture Collection, P.O. Box 1549, Manassas, Va., 20108 unless otherwise indicated. The cell lines studied were estrogen receptor-negative breast cancer cell lines MDA-MB-231 (ATCC Accession No. HTB-26) and MDA-MB-468 (ATCC Accession No. HTB-132) and estrogen receptor-positive breast cancer cell lines, MCF-7 (ATCC Accession No. HTB-22) and T-47D (ATCC Accession No. HTB-133).
(§9) All cell lines were grown on the bottom of 12-well flasks in Gibco RPMI-1640, until they reached the confluency of about 50%. After that, the medium was exchanged with DMEM (Sigma, D-5030), supplemented with 10% charcoal-treated FBS.
(§10) After four days (at confluency of about 75%), cells were treated by exposure to either CDME (500 μM) or tamoxifen (100 μM) or neither for 16 hours at 37° C. CaspACE™ assay analysis of the treated and control cells was performed as described in Example 2 and measured via flow cytometry. Note that the dosage of tamoxifen was a maximum positive control dose, higher than that normally administered for chemotherapy.

MCF-7 (ER+) = test: as above; settings: Tamoxifen 100 μM, 16 hours
From the text: as §7, §8, §9, §10

MDA-MB-468 (ER−) = test: as above; settings: Tamoxifen 100 μM, 16 hours
From the text: as §7, §8, §9, §10

T-47D (ER+) = test: as above; settings: Tamoxifen 100 μM, 16 hours
From the text: as §7, §8, §9, §10

TNF-a
localisation of cathepsin B [1]: translocation of cathepsin B from a lysosomal location to a diffuse cytosolic location
% Apoptosis [2]: 17.1%
% Apoptosis [3]: 12.8%
% Apoptosis [4]: 17.2%
% Apoptosis [5]: 12.1%
% Apoptosis [6]: 8.2%
% Apoptosis [7]: 5.5%
% Apoptosis [8]: 15.3* %
% Apoptosis [9]: 11.4%
% Apoptosis [10]: 19.3%
% Apoptosis [11]: 14.9%
% Apoptosis [12]: 9.2%
% Apoptosis [13]: 14.8%
% Apoptosis [14]: 7.8%
% Apoptosis [15]: 11.4%
% Apoptosis [16]: 8.2%
% Apoptosis [17]: 16.1%
% Apoptosis [18]: 6.3%
% Apoptosis [19]: 13.5%

CC/C(=C(\c1ccccc1)c1ccc(OCCN(C)C)cc1)c1ccccc1 [Tamoxifen, tamoxifen, reference compound]
percent of apoptotic cells (±S.D.) (MDA-MB-231 (ER−)): 98.92 ± 0.99%
percent of apoptotic cells (±S.D.) (MCF-7 (ER+)): 98.47 ± 0.53%
percent of apoptotic cells (±S.D.) (MDA-MB-468 (ER−)): 90.37 ± 1.70%
percent of apoptotic cells (±S.D.) (T-47D (ER+)): 99.91 ± 0.08%
